{"source": "patent US9469878B2", "about": "“Methods of treating cancer comprising targeting NQO1” (The Board of Regents of the University of Texas System, priority 2010, dated 2016)", "format_in_all_cases": "cell-based, human", "key": {"A549 cells": {"test_system": "A549 cells", "assay": "LD50 responses of NSCLC cell lines treated with β-Lap", "conditions": "NQO1 enzyme activities ≧50 units, β-Lap 2 h, 7 days later", "method": "(§1) LD50 responses were plotted as a function of NQO1 enzymatic levels. The notations, *1/*1 and *2/*2 represent the NQO1 status of each cell line as homozygous wild type (*1/*1) or homozygous polymorphic (*2/*2) genotypes. […] In (b), Kaplan-Meier survival curve of mice bearing orthotopic lung tumors implanted with *1/*1 A549 cells. Mice were treated intravenously (5 doses every other day) with β-lap-HPβ-CD or vehicle alone (HPβ-CD)."}, "H441 cells": {"test_system": "H441 cells", "assay": "LD50 responses of NSCLC cell lines treated with β-Lap", "conditions": "NQO1 enzyme activities ≧50 units, β-Lap 2 h, 7 days later", "method": "as §1"}, "PC-3 cells": {"test_system": "PC-3 cells", "assay": "Relative DNA cell survival assay, β-lap with or without IR", "conditions": "for Equivalent dose of IR / Equivalent dose of β-Lap: Machado's model", "method": "Relative DNA cell survival assays were assessed after various treatments. Briefly, cells were seeded at 5×10^3 per well in 48-well plates and allowed to attach overnight. […] DNA content was then determined by Hoeschst 33258 dye staining and fluorescence detection using a plate reader (Perkin-Elmer, Boston, Mass.) as described. Relative survival assays after combined treatment were confirmed by colony-forming ability assays as described. Results were reported as means±SE from at least three independent experiments. For relative survival data, different combinations of IR+β-lap exposures were fit with simple multi-target models in SigmaPlot for Windows Version 11.0. For synergy, a statistical definition of synergy (48) was used and calculations were performed by fitting experimental data with the Machado and Robinson model using the R code (47). The equitoxic doses listed in Table 1 were calculated by the parameters of the model of Machado and Robinson obtained in fitting."}}}
{"compound": "CC1(C)CCC2=C(O1)c1ccccc1C(=O)C2=O", "note": "[β-Lap, 3,4-dihydro-2,2-dimethyl-2H-naphtho[1,2-b]pyran-5,6-dione]", "values": [{"measurement": "LD50", "setting": "A549 cells", "value": 2.5, "unit": "µM"}, {"measurement": "LD50", "setting": "H441 cells", "value": 1.5, "unit": "µM"}, {"measurement": "Exposure time sufficient to achieve maximal cytotoxicity", "setting": "PC-3 cells; 4 μM β-lap", "value": "~120", "unit": "min"}, {"measurement": "β-lap dose with the same effect as the combination", "setting": "PC-3 cells; 1 Gy+1 μM β-lap", "value": 4, "unit": "µM"}, {"measurement": "Equivalent dose of IR", "setting": "PC-3 cells; IR 0 Gy + β-Lap 1 μM", "value": 0.6, "unit": "Gy"}, {"measurement": "Equivalent dose of β-Lap", "setting": "PC-3 cells; IR 0 Gy + β-Lap 1 μM", "value": 1, "unit": "µM"}, {"measurement": "Equivalent dose of IR", "setting": "PC-3 cells; IR 0 Gy + β-Lap 2 μM", "value": 1.2, "unit": "Gy"}, {"measurement": "Equivalent dose of β-Lap", "setting": "PC-3 cells; IR 0 Gy + β-Lap 2 μM", "value": 2, "unit": "µM"}, {"measurement": "Equivalent dose of IR", "setting": "PC-3 cells; IR 0 Gy + β-Lap 3 μM", "value": 1.7, "unit": "Gy"}, {"measurement": "Equivalent dose of β-Lap", "setting": "PC-3 cells; IR 0 Gy + β-Lap 3 μM", "value": 3, "unit": "µM"}, {"measurement": "Equivalent dose of IR", "setting": "PC-3 cells; IR 1 Gy + β-Lap 1 μM", "value": 1.7, "unit": "Gy"}, {"measurement": "Equivalent dose of β-Lap", "setting": "PC-3 cells; IR 1 Gy + β-Lap 1 μM", "value": 4.1, "unit": "µM"}, {"measurement": "Equivalent dose of IR", "setting": "PC-3 cells; IR 1 Gy + β-Lap 2 μM", "value": 2.1, "unit": "Gy"}, {"measurement": "Equivalent dose of β-Lap", "setting": "PC-3 cells; IR 1 Gy + β-Lap 2 μM", "value": 5.6, "unit": "µM"}, {"measurement": "Equivalent dose of IR", "setting": "PC-3 cells; IR 1 Gy + β-Lap 3 μM", "value": 2.7, "unit": "Gy"}, {"measurement": "Equivalent dose of β-Lap", "setting": "PC-3 cells; IR 1 Gy + β-Lap 3 μM", "value": 6.8, "unit": "µM"}, {"measurement": "Equivalent dose of IR", "setting": "PC-3 cells; IR 2 Gy + β-Lap 1 μM", "value": 2.6, "unit": "Gy"}, {"measurement": "Equivalent dose of β-Lap", "setting": "PC-3 cells; IR 2 Gy + β-Lap 1 μM", "value": 7.9, "unit": "µM"}, {"measurement": "Equivalent dose of IR", "setting": "PC-3 cells; IR 2 Gy + β-Lap 2 μM", "value": 3.1, "unit": "Gy"}, {"measurement": "Equivalent dose of β-Lap", "setting": "PC-3 cells; IR 2 Gy + β-Lap 2 μM", "value": 9.6, "unit": "µM"}, {"measurement": "Equivalent dose of IR", "setting": "PC-3 cells; IR 2 Gy + β-Lap 3 μM", "value": 3.6, "unit": "Gy"}, {"measurement": "Equivalent dose of β-Lap", "setting": "PC-3 cells; IR 2 Gy + β-Lap 3 μM", "value": 11.5, "unit": "µM"}, {"measurement": "Equivalent dose of IR", "setting": "PC-3 cells; IR 3 Gy + β-Lap 1 μM", "value": 3.7, "unit": "Gy"}, {"measurement": "Equivalent dose of β-Lap", "setting": "PC-3 cells; IR 3 Gy + β-Lap 1 μM", "value": 12.5, "unit": "µM"}, {"measurement": "Equivalent dose of IR", "setting": "PC-3 cells; IR 3 Gy + β-Lap 2 μM", "value": 4.1, "unit": "Gy"}, {"measurement": "Equivalent dose of β-Lap", "setting": "PC-3 cells; IR 3 Gy + β-Lap 2 μM", "value": 14.5, "unit": "µM"}, {"measurement": "Equivalent dose of IR", "setting": "PC-3 cells; IR 3 Gy + β-Lap 3 μM", "value": 4.6, "unit": "Gy"}, {"measurement": "Equivalent dose of β-Lap", "setting": "PC-3 cells; IR 3 Gy + β-Lap 3 μM", "value": 16, "unit": "µM"}]}
